These compounds were tested on TNFα (assay: Cot Monocyte TNFα Cell Based Assay). Details: Homo sapiens, Monocyte, read-out: EC50 TNF, LPS-stimulated human monocytes, TNFα.

EC50 | SMILES
26 nM | CC(C)(C)CNc1c(C#N)cnc2c(C#N)cc(N[C@H](c3cn(C4(CF)CC4)nn3)c3cccc4ncsc34)cc12 [Example 441, (S)-6-((benzo[d]thiazol-7-yl(1-(1-(fluoromethyl)cyclopropyl)-1H-1,2,3-triazol-4-yl)methyl)amino)-4-(neopentylamino)quinoline-3,8-dicarbonitrile]
28800 nM | Cn1cnc([C@H](Nc2cc(Cl)c3ncc(C#N)c(Nc4ccc(F)c(Cl)c4)c3c2)c2c[nH]nn2)c1 [Example 266, (S)-8-chloro-4-((3-chloro-4-fluorophenyl)amino)-6-(((1-methyl-1H-imidazol-4-yl)(1H-1,2,3-triazol-4-yl)methyl)amino)-quinoline-3-carbonitrile]
158 nM | Cn1ccc2c([C@H](Nc3cc(Cl)c4ncc(C#N)c(NCC(C)(C)C)c4c3)c3cn(C4CC4)nn3)ccnc21 [Example 519, (S)-8-chloro-6-(((1-cyclopropyl-1H-1,2,3-triazol-4-yl)(1-methyl-1H-pyrrolo[2,3-b]pyridin-4-yl)methyl)amino)-4-(neopentylamino)quinoline-3-carbonitrile]
530 nM | Cc1ccc([C@H](Nc2cc(Cl)c3ncc(C#N)c(NCC(C)(C)C)c3c2)c2cn(C3(C(F)(F)F)CC3)nn2)cn1 [Example 795, (S)-8-chloro-6-(((6-methylpyridin-3-yl)(1-(1-(trifluoromethyl)cyclopropyl)-1H-1,2,3-triazol-4-yl)methyl)amino)-4-(neopentylamino)quinoline-3-carbonitrile]
66 nM | Cc1nc(F)ccc1[C@H](Nc1cc(Cl)c2ncc(C#N)c(NCC(C)(C)C)c2c1)c1cn(CC(C)(F)F)nn1 [Example 749, (S)-8-chloro-6-(((1-(2,2-difluoropropyl)-1H-1,2,3-triazol-4-yl)(6-fluoro-2-methylpyridin-3-yl)methyl)amino)-4-(neopentylamino)quinoline-3-carbonitrile]
316 nM | CC(C)(C)CNc1c(C#N)cnc2c(Cl)cc(N[C@H](c3cn(C4(C(F)(F)F)CC4)nn3)c3cccn4cncc34)cc12 [Example 599, (S)-8-chloro-6-((imidazo[1,5-a]pyridin-8-yl(1-(1-(trifluoromethyl)cyclopropyl)-1H-1,2,3-triazol-4-yl)methyl)amino)-4-(neopentylamino)quinoline-3-carbonitrile]
34 nM | Cc1nc(F)ccc1[C@H](Nc1cc(C#N)c2ncc(C#N)c(NCC(C)(C)C)c2c1)c1cn(C(C)(C)C)nn1 [Example 589, (S)-6-(((1-(tert-butyl)-1H-1,2,3-triazol-4-yl)(6-fluoro-2-methylpyridin-3-yl)methyl)amino)-4-(neopentylamino)quinoline-3,8-dicarbonitrile]
4140 nM | N#Cc1cnc2c(Cl)cc(N[C@@H](c3cnc(F)c(F)c3)c3c[nH]nn3)cc2c1Nc1cnc(F)c(F)c1 [Example 163, (S)-8-chloro-6-(((5,6-difluoropyridin-3-yl)(1H-1,2,3-triazol-4-yl)methyl)amino)-4-((5,6-difluoropyridin-3-yl)amino)quinoline-3-carbonitrile]
297 nM | Cc1ncccc1[C@H](Nc1cc(Cl)c2ncc(C#N)c(Nc3ccc(F)c(Cl)c3)c2c1)c1c[nH]nn1 [Example 272, (S)-8-chloro-4-((3-chloro-4-fluorophenyl)amino)-6-(((2-methylpyridin-3-yl)(1H-1,2,3-triazol-4-yl)methyl)amino)quinoline-3-carbonitrile]
426 nM | Cc1ncoc1[C@H](Nc1cc(Cl)c2ncc(C#N)c(Nc3ccc(F)c(Cl)c3)c2c1)c1cn(C2CCN(C(C)(C)C)CC2)nn1 [Example 265, (R)-6-(((1-(1-(tert-butyl)piperidin-4-yl)-1H-1,2,3-triazol-4-yl)(4-methyloxazol-5-yl)methyl)amino)-8-chloro-4-((3-chloro-4-fluorophenyl)amino)quinoline-3-carbonitrile]
374 nM | Cn1ccc2c([C@H](Nc3cc(Cl)c4ncc(C#N)c(NCC(C)(C)C)c4c3)c3cn(C4(C(F)(F)F)CC4)nn3)ccnc21 [Example 658, (S)-8-chloro-6-(((1-methyl-1H-pyrrolo[2,3-b]pyridin-4-yl)(1-(1-(trifluoromethyl)-cyclopropyl)-1H-1,2,3-triazol-4-yl)methyl)amino)-4-(neopentylamino)quinoline-3-carbonitrile]
782 nM | CC(C)(C)CNc1c(C#N)cnc2c(Cl)cc(N[C@@H](c3ccc(Cl)nc3)c3cn(C4(C(F)(F)F)CC4)nn3)cc12 [Example 793, (S)-8-chloro-6-(((6-chloropyridin-3-yl)(1-(1-(trifluoromethyl)cyclopropyl)-1H-1,2,3-triazol-4-yl)methyl)amino)-4-(neopentylamino)quinoline-3-carbonitrile]
1040 nM | N#Cc1cnc2c(Cl)cc(N[C@@H](c3cccnc3)c3cn(C4COC4)nn3)cc2c1N[C@@H](CCO)c1ccccc1 [Example 182, 8-chloro-4-(((S)-3-hydroxy-1-phenylpropyl)amino)-6-(((S)-(1-(oxetan-3-yl)-1H-1,2,3-triazol-4-yl)(pyridin-3-yl)methyl)amino)quinoline-3-carbonitrile]

Same assay, conditions: Homo sapiens, Monocyte, read-out: EC50 TNF, LPS-stimulated human monocytes, TNFα TR-FRET

EC50 | SMILES
49 nM | Cc1nc(F)ccc1[C@H](Nc1cc(C#N)c2ncc(C#N)c(NCC(C)(C)C(F)(F)F)c2c1)c1nnn(C2(C3CC3)CC2)c1F [Example 862, (S)-6-(((1-([1,1′-bi(cyclopropan)]-1-yl)-5-fluoro-1H-1,2,3-triazol-4-yl)(6-fluoro-2-methylpyridin-3-yl)methyl)amino)-4-((3,3,3-trifluoro-2,2-dimethylpropyl)amino)quinoline-3,8-dicarbonitrile]
238 nM | COc1c(C(Nc2cc(C#N)c3ncc(C#N)c(NCC(C)(C)C)c3c2)c2ccc(F)nc2C)nnn1C (stereo not drawn) [Example 908, 6-(((6-fluoro-2-methylpyridin-3-yl)(5-methoxy-1-methyl-1H-1,2,3-triazol-4-yl)methyl)amino)-4-(neopentyl-amino)quinoline-3,8-dicarbonitrile]

Same assay, conditions: read-out: EC50 TNF; LPS-stimulated human monocytes, TNFα

SMILES | EC50
CC(C)Oc1ncccc1[C@H](Nc1cc(Cl)c2ncc(C#N)c(Nc3ccc(F)c(Cl)c3)c2c1)c1cn(C2CCN(C(C)(C)C)CC2)nn1 [Example 291, (S)-6-(((1-(1-(tert-butyl)piperidin-4-yl)-1H-1,2,3-triazol-4-yl)(2-isopro-poxypyridin-3-yl)methyl)amino)-8-chloro-4-((3-chloro-4-fluorophenyl)-amino)quinoline-3-carbonitrile] | 478 nM
CC(C)(C)N1CCC(n2cc([C@@H](Nc3cc(Cl)c4ncc(C#N)c(Nc5ccc(F)c(Cl)c5)c4c3)c3cccnc3)nn2)CC1 [Example 369, (S)-6-(((1-(1-(tert-butyl)piperidin-4-yl)-1H-1,2,3-triazol-4-yl)(pyridin-3-yl)methyl)amino)-8-chloro-4-((3-chloro-4-fluorophenyl)amino)quin-oline-3-carbonitrile] | 89 nM

Same assay, conditions: read-out: EC50 TNF; LPS-stimulated human monocytes, TNFα TR-FRET

EC50 | SMILES
99 nM | COc1nccc2c([C@H](Nc3cc(Cl)c4ncc(C#N)c(NCC(C)(C)C(F)(F)F)c4c3)c3cn(C45CC(C4)C5)nn3)cccc12 [Example 928, (S)-6-(((1-(bicyclo[1.1.1]pentan-1-yl)-1H-1,2,3-triazol-4-yl)(1-methoxylsoquinolin-5-yl)methyl)amino)-8-chloro-4-((3,3,3-trifluoro-2,2-dimethylpropyl)amino)quinoline-3-carbonitrile]

From patent US11066414B2, “Cot modulators and methods of use thereof” (Gilead Sciences, Inc., priority 2015, dated 2021)
